The record followed here is patent publication US11723907B2, “Anti-aging compounds” (THE CLEVELAND CLINIC FOUNDATION, priority 2017, dated 2023).

Molecules are shown by their SMILES.

The test system of one series is cancer cell lines. The series is described as follows: Treatment of cancer cell lines. It is filed as cell-based.
Series [1] concerns normal human fibroblasts (NHDF) and stromal cells isolated from human normal bone marrow. In words: Replicative lifespan (RLS) of normal cells in tissue culture. The format is cell-based. The note with it: normal fibroblasts and mesenchymal cells. The source says:
FIGS. 1A-1I provide graphs and images showing a new high throughput method for simultaneous detection of senescence associated SAβG activity and ATP in culture of normal pre-aged cells identified two potent anti-aging scaffolds. (A). General schema of HTS. (B). […] (C). Structures and corresponding tautameric forms of lead compounds. (D) Evaluation of possible genotoxic effect of experimental drugs in modified Ames test. 4-Nitroquinoline 1-oxide (4NQO) was used as a positive control. […] The general schema of RLS measurement in different cell types. (F) VA and N2N1 considerably extend RLS of normal human fibroblasts (NHDF) and stromal cells isolated from human normal bone marrow. (G). […] (I). Upper panel: Morphological appearance of NHDF at late passages with or without treatment. Lower panel: Cells were also fixed in para-formaldehyde and stained to detect SAβG.
The inventors developed a new high-throughput screening (HTS) method for identification of anti-aging drugs (FIG. 1). The novel method was specifically designed for simultaneous detection of β-galactosidase activity in cell lysate followed by ATP detection by standard luciferase based assay. […] Altogether, the procedure allowed a simultaneous quantifiable detection of senescence associated β-galactosidase (SAβG) activity and evaluation of ATP level as a sign of improved proliferative capacity or cytotoxicity. […]

For series [2], the system named is bone marrow cells from aplastic anemia patients. In words: Colony assay, aplastic anemia bone marrow. It is filed as cell-based, human. To be noted: tissue culture derived from aplastic anemia patients. The source says:
While performing a multidrug screen for the agents that could simultaneously decrease senescence and overcome proliferative block in pre-senescent mesenchymal cells, the inventors identified two promising lead compounds violuric acid (VA) and 1-naphthoquinone-2-monoxime (N2N1). […] In term of hematopoietic stem cells (HSC) these agents prolonged the availability of HSC in methylcellulose (replicative/serial re-plating) experiments, long-term culture initiating cell assays (LTC-IC) and increased the performance of HSC in a competitive repopulation assay, the CD45.1/2 model. Furthermore, the inventors observed colonies formation in methylcellulose colony assay, after application of these drugs to the mononucleocyte fraction of bone marrow isolated from the patients diagnosed with severe AA. […] These compounds belong to a family of redox catalysts with unique chemical structure that shares a combined electrophile-nucleophile potential, a feature that renders these molecules effective anti-aging treatment in various biological model systems.
FIGS. 2A-2G provide graphs and images showing N2N1 and VA support HSC/progenitors populations under pressure of differentiation and tissue culture stress in vitro and in vivo. General schema of CFU (A) and LTC-IC assays (B). […] Representative result of three NBM is shown. (D) The morphology of cells at the end of 1st part of LTC-IC assay is shown. […]

For series [3], the system named is HSC/progenitors from normal bone marrows. In words: CFU and LTC-IC assays, normal bone marrow. It is filed as cell-based, human. To be noted: for colonies formation: tissue culture derived from normal bone marrows; for total number of cells at end of 1st part of LTC-IC assay: versus untreated samples. The source says:
FIGS. 2A-2G provide graphs and images showing N2N1 and VA support HSC/progenitors populations under pressure of differentiation and tissue culture stress in vitro and in vivo. General schema of CFU (A) and LTC-IC assays (B). […] Representative result of three NBM is shown. (D) The morphology of cells at the end of 1st part of LTC-IC assay is shown. The total number of cells at this step of experiment was always larger in the samples treated with experimental drugs. (E) Treatment of mice with N2N1 promotes maintenance of normal HSC in vivo. Competitive repopulation assay performed on CD45.2 mice treated with N2N1. Summary of four animals, three hematopoietic tissues. […] Representative result of three patients is shown.
While these compounds may have many applications, the inventors have focused on potential usage of these agents to improve the function of HSC in BMF. They have first applied them in a battery of tissue culture assays measuring i) exhaustion kinetics of HSC and ii) hematologic toxicity. […] The inventors then focused our studies on HSC performance measured in CFU assay and in LTC-IC (FIG. 2), the best in vitro surrogate assay for the quantification and functional assessment of HSCs. The potential positive impact of identified pro-survival catalysts on viability and propagation of HSC was evaluated in methylcellulose cultures, classic CFU assay, long-term culture colony-initiating (LTC-IC) cell assays (FIGS. 2A, B and C) and competitive repopulation assay based on CD45.1/2 mouse model (FIG. 2E).
As a starting point for clinical application of identified redox catalysts, the inventors tested them on their ability to stimulate hematopoiesis in normal and damaged bone marrow cells, isolated from the patients with severe AA (FIGS. 2C and F). Very promising data was obtained, confirming the original idea that these small molecules can support propagation of both normal HSC and stem cells presented in damaged or disease bone marrow.

With `O=C1/C(=N/O)C=Cc2ccccc21` [N2N1, 1-naphthoquinone-2-monoxime], the toxicity / proliferation entry with cancer cell lines was “partially toxic”. The “expansion above regular replicative life span” value in series [1] is on record as around 25 doublings. Besides, in series [2], the colonies formation result is “promote colonies formation”. Further, in series [3], the colonies formation entry is given as “promote colonies formation” and the “total number of cells at end of 1st part of LTC-IC assay” value was “always larger”.

On to `O=C1NC(=O)C(=NO)C(=O)N1` [VA, 2,4,5,6(1H,3H)-pyrimidine-tetrone 5-oxime], for which the toxicity / proliferation entry in the series with cancer cell lines was “neither toxic nor pro-proliferative”. Moreover, the “expansion above regular replicative life span” value in series [1] is on record as around 25 doublings. In series [2], the colonies formation entry is listed as “promote colonies formation”. For the same molecule, in series [3], the colonies formation result is “promote colonies formation” and the “total number of cells at end of 1st part of LTC-IC assay” value was “always larger”.
